Data published in BindingDB's records for doi:10.1124/jpet.104.066688 (Acadia Pharmaceuticals, 2004).

Biological target: T1, 5-hydroxytryptamine receptor 2C (Homo sapiens, UniProt P28335)
T1 sequence (P28335 whole entry): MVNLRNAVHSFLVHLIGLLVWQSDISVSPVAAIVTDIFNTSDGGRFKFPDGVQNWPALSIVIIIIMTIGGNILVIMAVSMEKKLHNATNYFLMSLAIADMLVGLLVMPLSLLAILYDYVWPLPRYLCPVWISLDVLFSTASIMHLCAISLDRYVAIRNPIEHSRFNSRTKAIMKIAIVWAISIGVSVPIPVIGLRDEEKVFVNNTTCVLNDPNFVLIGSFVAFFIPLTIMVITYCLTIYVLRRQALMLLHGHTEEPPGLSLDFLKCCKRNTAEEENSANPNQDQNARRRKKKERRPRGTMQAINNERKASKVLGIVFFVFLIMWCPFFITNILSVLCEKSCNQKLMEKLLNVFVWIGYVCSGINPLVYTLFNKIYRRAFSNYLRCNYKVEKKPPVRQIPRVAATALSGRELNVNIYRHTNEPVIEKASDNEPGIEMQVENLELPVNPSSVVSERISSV

Ki: 2.9 nM
Compound: COc1ccc(CC(=O)N(Cc2ccc(C)cc2)C2CCN(C)CC2)cc1 [N-(4-Methylbenzyl)-N-(1-methyl-4-piperidinyl)-4-methoxybenzeneacetamide]
